Data on two compounds can be found in paper PMC4452589, “An evaluation of the brain distribution of [^11C]GSK1034702, a muscarinic-1 (M1) positive allosteric modulator in the living human brain using positron emission tomography” (EJNMMI Research, 2014).

In general, efflux ratio refers to the permeability from basolateral to apical divided by that in the opposite direction, in the common usage. One may read the pEC50 as the EC50 on a negative log10 scale, so that one unit is a factor of ten.

Structures are written as SMILES. Like-named read-outs stand apart in the source and are kept apart here.

One data set concerns P-glycoprotein (PGP). Also on record: method as in GlaxoSmithKline (GSK) data on file. The settings on record: MDCK cell line expressing human MDR1; ratio printed as x:1; ref GlaxoSmithKline (GSK) data on file; cited from earlier work.
Details of data set [1]: method as in GlaxoSmithKline (GSK) data on file. The note with it: marmoset; ratio printed as x:1; ref GlaxoSmithKline (GSK) data on file; cited from earlier work.
The nature of data set [2]: plasma protein binding by equilibrium dialysis, human. In kind it is in vitro ADME. The settings on record: equilibrium dialysis 5 h. As for the experimental part:
(§1) The in vitro brain and plasma protein binding of GSK1034702 across a range of species was determined using equilibrium dialysis as described previously.
A general note: In equilibrium dialysis free small molecules cross a membrane that holds back macromolecules.

Data set [3] is described as follows: plasma free fraction by ultrafiltration, human arterial plasma. In kind it is in vitro ADME. As to the method: (§2) Arterial blood radioactivity was measured continuously for the first 15 min after [^11C]GSK1034702 injection, using a continuous sampling system (ABSS Allogg, Mariefred, Sweden). In addition, 12 serial discrete blood samples were obtained (at 5, 10, 15, 20, 25, 30, 40, 50, 60, 70, 80 and 90 min post injection), to determine whole blood and plasma activity. Seven samples (at 5, 10, 20, 30, 50, 70 and 90 min) were further processed by HPLC to measure the fraction of plasma activity representing unmetabolised GSK1034702. For all human studies, the non-protein-bound fraction of [^11C]GSK1034702 in arterial plasma (fP) was assessed by ultrafiltration for the blood sample taken at the beginning of the scan.

Data set [4] is described as follows: plasma protein binding by equilibrium dialysis, dog. In kind it is in vitro ADME. The note with it: equilibrium dialysis 5 h. As for the experimental part: as §1
For a further data set, the system named is human m2-5AChR receptors. On the set-up: method as in earlier work. The note with it: versus m1AChR; cited from earlier work.
Details of data set [5]: method as in GlaxoSmithKline (GSK) data on file. The note with it: mouse; ref GlaxoSmithKline (GSK) data on file; cited from earlier work.
On the set-up of data set [6]: method as in PMID 22932339. The settings on record: healthy smokers, nicotine abstinence model of cognitive dysfunction; cited from earlier work.
Data set [7] in a line: plasma protein binding by equilibrium dialysis, mouse. In kind it is in vitro ADME. The note with it: equilibrium dialysis 5 h. As for the experimental part:
as §1

A short description of data set [8]: safety and tolerability of single 5-mg oral dose in healthy males. In kind it is in vivo, human. The note with it: single oral dose of 5 mg. As to the method:
An open-label PET study (GSK study number 110771) was conducted to assess the transport of [^11C]GSK1034702 across the BBB and its distribution in the living human brain. Four healthy males aged between 35 and 55 years old, with body mass index (BMI) between 19.0 and 29.0 kg/m^2, and the absence of past or present neurological, medical or psychiatric illnesses and concomitant medications were enrolled. Clinical status was assessed by history, physical examination, routine blood tests, urine toxicology and electrocardiogram. All subjects provided written informed consent. The study was approved by the Edinburgh Independent Ethics Committee for Medical Research and permission to administer radioisotopes was obtained from the Administration of Radioactive Substances Advisory Committee of the UK. Subjects were recruited by and monitored by the Hammersmith Medicines Research (HMR) clinic. All scanning procedures were performed at the GlaxoSmithKline Clinical Imaging Center, Hammersmith Hospital, London.
Each subject underwent a single study day, during which PET imaging was performed. T1-weighted structural MRI scan was performed for all subjects to provide neuroanatomical information. A tracer dose of [^11C]GSK1034702 (mass <50 μg) was administered as an IV bolus immediately before each PET scan. During the scanning day, each subject received a baseline [^11C]GSK1034702 scan, followed by a single 5-mg oral dose (p.o.) of […] and a subsequent [^11C]GSK1034702 scan approximately 4 h post-dose. Subjects returned to the clinic for a follow-up visit 7 to 14 days following the oral dose of GSK1034702.

The test system of the next data set is human recombinant m1AChR. Also on record: method as in earlier work. The settings on record: cited from earlier work.
Data set [9] in a line: plasma protein binding by equilibrium dialysis, monkey. The note with it: equilibrium dialysis 5 h. In kind it is in vitro ADME. As for the experimental part: as §1
Data set [10] is described as follows: parent fraction in arterial plasma by HPLC during PET scan. Type of data set: in vivo. The settings on record: human, baseline and post-dose sessions, 90 min. As to the method:
as §2

Setting [11] is: mean ± SD, n = 6, read-out: Plasma protein binding (converted).
Setting [12] is: read-out: f P (plasma-free fraction).

Turning to `Cc1cc(F)c2[nH]c(=O)n(C3CCN(C4CCOCC4)CC3)c2c1` [GSK1034702], the efflux ratio in the data set with P-glycoprotein (PGP) is given as 2.6. The figures for the brain/blood ratio in data set [1] and in data set [5] were 2.0 and 0.4, respectively. Also, the fraction unbound at 5 h, 1 μg/mL in data set [2] (setting [11]) is 0.442; in data set [2] (setting [12]) it was 0.44; in data set [4] (setting [11]), 0.555; in [4] (setting [12]), 0.56; in data set [7] (setting [11]), 0.518; in data set [7] (setting [12]) it was 0.52. For the same compound, the values for the fraction unbound at 5 h, 1 μg/mL in data set [9] (setting [11]) and in [9] (setting [12]) were 0.583 and 0.58, respectively. Further, the “f P Baseline” value is listed as 0.45 in data set [3] (Average of four subjects); 0.42 in data set [3] (Subject 1); 0.43 in data set [3] (Subject 2); 0.43 in data set [3] (Subject 3); 0.51 in data set [3] (Subject 4). In addition, the “f P Post-dose” value in data set [3] (Average, after 5 mg oral) is listed as 0.44; in [3] (Subject 2, after 5 mg oral), 0.41; in data set [3] (Subject 3, after 5 mg oral), 0.43; in data set [3] (Subject 4, after 5 mg oral) it was 0.48. The “selectivity over human m2-5AChR receptors” value with human m2-5AChR receptors is 100 fold. For the same compound, the “effect on episodic memory” value in data set [6] is recorded as “improved episodic memory”. Moreover, the serious adverse events entry in data set [8] is reported as “No serious adverse events”. In addition, in [8] (healthy male subjects), the tolerability entry is “well tolerated”. Moreover, the adverse events result in [8] (one subject, salivary hypersecretion and dysgeusia, considered drug-related) is “two mild and transient adverse events”. Further, the pEC50 in the data set on human recombinant m1AChR (allosteric agonist at human recombinant m1AChR) is reported as 8.1 ± 0.1. In the data set with human recombinant m1AChR (human recombinant m1AChR), the “intrinsic activity (IA)” value is given as 0.78 ± 0.02.
With `[11CH3]c1cc(F)c2[nH]c(=O)n(C3CCN(C4CCOCC4)CC3)c2c1` [[^11C]GSK1034702], the “metabolism over the time course of the PET scan (parent fraction in plasma)” value in data set [10] was “minimal metabolism”.
